Values of other authors as cited in patent publication US20080195230A1, “Pericardial tissue sheet” (priority 2007, published 2008).

Experiments:
[1] = tested on: 3T3 fibroblasts; conditions: in vitro
[2] = tested on: Chinese hamster ovary (CHO-K1) cells; conditions: in vitro
[3] = tested on: rabbit; conditions: i.v.

| Molecule | cytotoxicity compared with glutaraldehyde [1] | genotoxicity (clastogenic response) [2] | LD50 [3] [mg/kg] | solubility in organic solvents (alcohol, acetic acid, acetone) | solubility in water (water) |
| --- | --- | --- | --- | --- | --- |
| COC(=O)C1=CO[C@@H](O)[C@@H]2C(CO)=CC[C@H]12 [genipin] | substantially less cytotoxic than glutaraldehyde | does not cause clastogenic response |  |  |  |
| Deoxycholic acid |  |  | 15 | soluble in alcohol and to a lesser extent acetone and glacial acetic acid | sparingly soluble in water |
